How the values were obtained:
Apple = assay: plant growth regulating, whole plant screen, apple; format: in vivo, Apple (Red Delicious); details: apple (AP); 4000 ppm (4 kg/ha); after 2-6 weeks
Protocol: (§1) This Example illustrates the plant growth regulating properties of compounds 1 and 2 when tested on a whole plant screen against various species of plant. The plant species are identified in Table IV with the leaf stage at which they were sprayed.
(§2) A formulation of each chemical was applied at 4000 ppm (4 kg/ha in a 1000 l/ha field volume) using a tracksprayer and a SS8004E (Teejet) nozzle.
(§3) After spraying, the plants were grown in a glasshouse with 25° C. day/22° C. night temperatures. Supplementary lighting was supplied when necessary to provide an average photoperiod of 16 hours (14 hours minimum).
(§4) After 2-6 weeks in the glasshouse, depending on species and time of year, the plants were visually assessed for morphological characteristics against a control plant sprayed with a blank formulation.

Myzus persicae (aphids) = assay: insecticidal properties, contact test, Myzus persicae (MP); format: in vivo; details: 500 ppm, Chinese Cabbage leaf, 3 days
From the text: (§5) "SYNPERONIC" is a Registered Trade Mark.

[1] = tested on: Musca domestica (houseflies - adults); assay: knockdown properties against Musca domestica (MDk); format: in vivo; details: 2000 ppm sprayed directly; inverted cup; knockdown at 15 minutes, mortality at 48 hours; 2 days
Protocol: A sample of compound 1 was diluted with 2 mls acetone and made up of a 2000 ppm solution with 0.1% aqueous synperonic solution. The solution (1 ml) was then sprayed directly onto twenty mixed sex houseflies held in a drinking cup. Immediately after spraying the cups were inverted and left to dry. An assessment of knockdown was made when the cups were righted 15 minutes later. The flies were then provided with a 10% sucrose solution on a cotton wool pad, and held for 48 hours in a holding room conditioned at 25° C. and 65% relative humidity before a mortality assessment was made.

[2] = tested on: Musca domestica (houseflies - adults); assay: insecticidal properties, contact test, Musca domestica adults (MDa); format: in vivo; details: 500 ppm, cotton wool/sugar, 1 day
From the text: as §5

[3] = tested on: Meloidogyne incognita (tomato root knot eelworm - larvae); assay: nematode test, residual, Meloidogyne incognita larvae (MI); format: in vivo; details: 250 ppm, semi in-vitro, 7 days
From the text: as §5
MI Meloidogyne incognita

Rice = assay: plant growth regulating, whole plant screen, rice; format: in vivo, Rice (Ishikari); details: rice (RC); 4000 ppm (4 kg/ha); after 2-6 weeks
Protocol: as §1, §2, §3, §4

Puccinia recondita = assay: fungicidal activity against foliar fungal diseases of plants, Puccinia recondita (wheat); format: in vivo; details: 100 ppm foliar spray plus root drench ca. 40 ppm a.i./dry soil, 1-2 days before inoculation
Pyricularia oryzae = format: in vivo; details: 100 ppm foliar spray plus root drench ca. 40 ppm a.i./dry soil, 1-2 days before inoculation
[4] = tested on: Blattella germanica (cockroach nymphs); assay: insecticidal properties, residual test, Blattella germanica nymphs (BG); format: in vivo; details: 500 ppm, plastic pot, 3 days
From the text: as §5

[5] = tested on: Chilo partellus (maize and sorghum stem borers - larvae); assay: insecticidal properties, residual test, Chilo partellus larvae (CPA); details: 500 ppm, oilseed rape, 3 days
Protocol: The activity of the compound was determined using insect, mite and nematode pests. The compound was used in the form of a liquid preparation containing 500 parts per million (ppm) by weight of the compound except for the test on Meloidogyne incognita when a liquid preparation of 250 ppm by weight was used. The preparation was made by dissolving the compound in acetone and diluting the solution with water containing 0.1% by weight of a wetting agent sold under the trade name "SYNPERONIC" NX until the liquid preparation contained the required concentration of the product.
The test procedure adopted with regard to each pest was basically the same and comprised supporting a number of the pests on a medium which was usually a host plant or a foodstuff on which the pests feed, and treating either or both the pests and the medium with the preparation. The mortality of the pests was then assessed at periods usually varying from one to seven days after the treatment.
The results of the tests are given in Table VII as a grading of mortality designated as 9, 5 or 0 wherein 9 indicates 80-100% mortality, 5 indicates 50-79% mortality and 0 indicates less than 50% mortality.

Plasmorpara viticola = assay: fungicidal activity against foliar fungal diseases of plants, Plasmorpara viticola (vine); format: in vivo; details: 100 ppm foliar spray plus root drench ca. 40 ppm a.i./dry soil, 1-2 days before inoculation
[6] = tested on: Diabrotica balteata (rootworm larvae); assay: insecticidal properties, residual test, Diabrotica balteata (DB); format: in vivo; details: 500 ppm, filter paper/maize seed, 3 days
From the text: as §5

[7] = tested on: Tetranychus urticae (spider mites - ova); assay: insecticidal properties, contact test, Tetranychus urticae ova (TUe); format: in vivo; details: 500 ppm, French bean leaf, 6 days
From the text: as §5

Cercospora arachidicola = assay: fungicidal activity against foliar fungal diseases of plants, Cercospora arachidicola (peanut); format: in vivo; details: 100 ppm foliar spray plus root drench ca. 40 ppm a.i./dry soil, 1-2 days before inoculation
Venturia inaequalis = assay: fungicidal activity against foliar fungal diseases of plants, Venturia inaequalis (apple); format: in vivo; details: 100 ppm foliar spray plus root drench ca. 40 ppm a.i./dry soil, 1-2 days before inoculation
Erysiphe graminis = assay: fungicidal activity against foliar fungal diseases of plants, Erysiphe graminis (barley); format: in vivo; details: 100 ppm foliar spray plus root drench ca. 40 ppm a.i./dry soil, inoculated 24 hours before treatment
[8] = tested on: Nilaparvata lugens (brown plant hopper - nymphs); assay: insecticidal properties, contact test, Nilaparvata lugens nymphs (NL); format: in vivo; details: 500 ppm, rice plant, 3 days
From the text: as §5

[9] = tested on: Heliothis virescens (tobacco budworm - larvae); assay: insecticidal properties, residual test, Heliothis virescens larvae (HV); format: in vivo; details: 500 ppm, cotton leaf, 3 days
From the text: as §5

[10] = tested on: Tetranychus urticae (spider mites - adults); assay: insecticidal properties, contact test, Tetranychus urticae adults (TUa); format: in vivo; details: 500 ppm, French bean leaf, 3 days
From the text: as §5

Maize = assay: plant growth regulating, whole plant screen, maize; format: in vivo, Maize (Earliking); details: maize (MZ); 4000 ppm (4 kg/ha); after 2-6 weeks
Protocol: as §1, §2, §3, §4

Phytophthora infestans = format: in vivo; details: 100 ppm foliar spray plus root drench ca. 40 ppm a.i./dry soil, 1-2 days before inoculation
Tomato = assay: plant growth regulating, whole plant screen, tomato; format: in vivo, Tomato (Ailsa Craig); details: tomato (TO); 4000 ppm (4 kg/ha); after 2-6 weeks
Protocol: as §1, §2, §3, §4

Compound | disease control, PUCCINIA RECONDITA (WHEAT) (Puccinia recondita) | disease control, P[…] (RICE) (Pyricularia oryzae) | disease control, PLASMORPARA VITICOLA (VINE) (Plasmorpara viticola) | disease control, CERCOSPORA ARACHIDICOLA (PEANUT) (Cercospora arachidicola) | disease control, VENTURIA INAEQUALIS (APPLE) (Venturia inaequalis) | disease control, ERYSIPHE GRAMINIS (BARLEY) (Erysiphe graminis) | disease control, PH[…] (TOMATO) (Phytophthora infestans) | other results
CO/C=C(/C(=O)OC)n1ccc2ccccc21 [Compound 1] | 0 (60-100% of disease on untreated plants) | 3 (trace--5% of disease on untreated plants) | 4 | 3 (trace--5% of disease on untreated plants) | 3 (trace--5% of disease on untreated plants) | 1 (26-59% of disease on untreated plants) | – | I = Interligular or internodal length reduction (Apple): 1 (10-30%); R = Retardation (Apple): 1 (10-30%); grading of mortality, MP (Myzus persicae (aphids)): 0 (less than 50% mortality); grading of mortality, MDk (knockdown) [1]: 0 (less than 50% mortality); grading of mortality, MDa [2]: 0 (less than 50% mortality); grading of mortality, MI [3]: 0 (less than 50% mortality); I = Interligular or internodal length reduction (Rice): 1 (10-30%); R = Retardation (Rice): 1 (10-30%); grading of mortality, BG [4]: 0 (less than 50% mortality); grading of mortality, CPA [5]: 9 (80-100% mortality); grading of mortality, DB [6]: 0 (less than 50% mortality); grading of mortality, TUe [7]: 0 (less than 50% mortality); grading of mortality, NL [8]: 0 (less than 50% mortality); grading of mortality, HV [9]: 0 (less than 50% mortality); grading of mortality, TUa [10]: 9 (80-100% mortality)
CCOc1ccc2ccn(/C(=C\OC)C(=O)OC)c2c1 [Compound 2, (Z)-methyl 3-methoxy-2-[6-ethoxyindol-1-yl]acrylate] | 4 | 4 | 4 | 4 | 4 | 4 | 4 | A = Apical damage (Maize): 2 (31-60%); G = Greening effect (Maize): 1 (10-30%); A = Apical damage (Tomato): 3 (61-100%); I = Interligular or internodal length reduction (Tomato): 3 (61-100%); P = Phytotoxicity (Tomato): 2 (11-30%); R = Retardation (Tomato): 3 (61-100%); T = Tillering or side shooting (Tomato): 1 (10-30%)
CO/C=C(/C(=O)OC)n1ccc2ccc(-c3ccccc3)cc21 [Compound 3, (Z)-methyl 3-methoxy-2-[6-phenylindol-1-yl]acrylate] | 4 | 4 | 4 | – | 4 | 2 (6-25% of disease on untreated plants) | 4 | –
CO/C=C(/C(=O)OC)n1ccc2ccc(OC)cc21 [Compound 4] | 1 (26-59% of disease on untreated plants) | 4 | 4 | 3 (trace--5% of disease on untreated plants) | 4 | 2 (6-25% of disease on untreated plants) | 0 (60-100% of disease on untreated plants) | –
CO/C=C(/C(=O)OC)n1ccc2ccc(Br)cc21 [Compound 7] | 4 | – | 4 | 4 | 4 | 4 | 4 | –
CO/C=C(/C(=O)OC)n1ccc2ccc(I)cc21 [Compound 8] | 4 | – | 4 | 4 | 4 | 4 | 4 | –

Source: patent publication US4812162A, “Indole derivatives and their use as fungicides, insecticides and pesticides” (Imperial Chemical Industries PLC, priority 1986, dated 1989)
